As a reminder, the TGI is the concentration at which net growth stops. A low value points to more potent growth arrest.

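Method: 48-hour compound exposure of cells in 96-well plates, five concentrations, linear interpolation of endpoints. TGI denotes the concentration required for complete inhibition of growth.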 A value given as a limit tells only on which side of the number the result lay.

The first test has as its system NCI-H226 lung. The test can be described thus: DTP human tumour cell line panel, 48 h.
For `CC1(C)C2CCC1(C)[C@H](n1c(=O)n([C@@H]3CC4CCC3(C)C4(C)C)c(=O)n([C@@H]3CC4CCC3(C)C4(C)C)c1=O)C2`, the TGI worked out at 76.4 µM.

In turn, `Cc1cc(C(=O)CCCCOc2ccc(C3=NCCO3)cc2)c(C)n1C` had a TGI of 98 µM.

Another test deals with NCI-H23 lung. The test can be described thus: DTP human tumour cell line panel, 48 h.
`CC1(C)CCCC2OC2CCC(C)(C)C1=O` (stereo unspecified): the TGI was more than 100 µM.

`O=C1NCC2(CCN(CCCC3(c4ccc(F)cc4)OCCO3)CC2)N1c1ccccc1` registered a TGI of more than 100 µM.

Regarding `O=C(Nc1nccs1)c1c(O)nc2sccn2c1=O`, the TGI is more than 10 µM.

In the case of `CC1=NN(c2cccc(Cl)c2)C2(SCC(=O)N2c2nc3ccccc3s2)/C1=C\c1ccccc1O` (stereo unspecified), the TGI is 41.3 µM.

With `Cc1c(S(=O)(=O)c2ccccc2)c(N)n(CCN(C)C)c1C`, the TGI was more than 100 µM.

`N=C(N)SCc1ccc2c(c1)Sc1ccccc1O2` came in with a TGI of 21.5 µM.

On to `CCC1(CC)C(=O)NN(C(=O)c2ccccc2)C1=O`, for which the TGI is more than 100 µM.

Take `CS(=O)c1ncc2c(n1)-c1ccccc1OC2` (stereo unspecified): the TGI is more than 100 µM.

`CN(C)c1ccc(C(=N/N=C2\C(=O)Nc3ccccc32)c2ccc(N(C)C)cc2)cc1` displayed a TGI of 31.1 µM.

On to `CCCC(=O)OC1CC(n2cc(F)c(=O)[nH]c2=O)OC1COP(=O)(OCC(Cl)(Cl)Cl)OCC(Cl)(Cl)Cl` (stereo unspecified), for which the TGI was more than 100 µM.

For `CSC(=S)N(C)C`, the TGI is more than 100 µM.

Consider `CCN(CC)CCn1c(=O)c2cccnc2n2c3c(=O)n(C)c(=O)n(C)c3nc12`, for which the TGI was more than 100 µM.

`CCOC(=O)C1=C(C)C2C=C(c3cccs3)CC(c3ccc(Cl)cc3)=C2OC1=O` (stereo unspecified) gave a TGI of more than 100 µM.

In turn, `CN(C)c1ccc(S(=O)Nc2ccccc2)cc1` (stereo unspecified) displayed a TGI of more than 100 µM.

On to `COc1ccc2c(c1)OCC1Cc3ccccc3OC21` (stereo unspecified), for which the TGI is more than 100 µM.

Consider `Cc1ccc(C(=C2Sc3ccccc3S2)C(=C2Sc3ccccc3S2)c2ccc(C)s2)s1`, for which the TGI was more than 100 µM.

`CCCCC(C(=O)NCCNC(=O)CCC(=O)N(C)O)C(=O)NCCNC(=O)CCC(=O)N(C)O`: the TGI was more than 100 µM.

Take `C=CCSc1nnc2cc(CN3CCCC3)c(-c3ccc(Cl)cc3)nn12`: the TGI amounted to 59.4 µM.

Compound `Cc1cn(C2CC(O)C(CO)O2)c(=O)[nH]c1=O` (stereo unspecified) came in with a TGI of more than 4530 µM.

`COc1cccc2c1OC1(C=C2)Oc2ccccc2C(=O)N1C` (stereo unspecified) showed a TGI of more than 100 µM.

For the compound `O=[N+]([O-])c1ccc(Oc2c(Cl)cc(S(=O)(=O)/N=C(\NO)Nc3ccc(Cl)cc3)cc2Cl)cc1`, the total growth inhibition concentration (TGI) amounted to 23.6 µM.

In the case of `O=C(CC(C(=O)c1ccsc1)c1ccc2c(c1)OCO2)c1ccccc1` (stereo unspecified), the concentration for total growth inhibition (TGI) is 63.1 µM.

Turning to `COc1ccc(NC(=O)CC(=O)N2N=C(N3c4ccccc4Sc4ccccc43)CC2c2ccccc2)cc1` (stereo unspecified), the TGI was more than 100 µM.

As to `CCOC(=O)c1ccc(NCC#CCN2CCOCC2)cc1`, the TGI is more than 100 µM.

With `CC1(C)C2CCC1(C)[C@H](n1c(=O)n([C@@H]3CC4CCC3(C)C4(C)C)c(=O)n([C@@H]3CC4CCC3(C)C4(C)C)c1=O)C2`, the TGI is more than 100 µM.

As to `Cc1cc(C(=O)CCCCOc2ccc(C3=NCCO3)cc2)c(C)n1C`, the TGI was more than 100 µM.

The next test relates to NCI-H460 lung. The test can be described thus: DTP human tumour cell line panel, 48 h.
With `CC1(C)CCCC2OC2CCC(C)(C)C1=O` (stereo unspecified), the TGI was more than 100 µM.

As to `O=C1NCC2(CCN(CCCC3(c4ccc(F)cc4)OCCO3)CC2)N1c1ccccc1`, the TGI was more than 100 µM.

Turning to `O=C(Nc1nccs1)c1c(O)nc2sccn2c1=O`, the concentration for total growth inhibition (TGI) was more than 10 µM.

Take `CC1=NN(c2cccc(Cl)c2)C2(SCC(=O)N2c2nc3ccccc3s2)/C1=C\c1ccccc1O` (stereo unspecified): the TGI is more than 100 µM.

The compound `Cc1c(S(=O)(=O)c2ccccc2)c(N)n(CCN(C)C)c1C` displayed a TGI of more than 100 µM.

`N=C(N)SCc1ccc2c(c1)Sc1ccccc1O2` came in with a TGI of 21.5 µM.

Turning to `CCC1(CC)C(=O)NN(C(=O)c2ccccc2)C1=O`, the TGI was more than 100 µM.

Compound `CS(=O)c1ncc2c(n1)-c1ccccc1OC2` (stereo unspecified) showed a TGI of more than 100 µM.

`CN(C)c1ccc(C(=N/N=C2\C(=O)Nc3ccccc32)c2ccc(N(C)C)cc2)cc1` had a TGI of 11.2 µM.

For the compound `CCCC(=O)OC1CC(n2cc(F)c(=O)[nH]c2=O)OC1COP(=O)(OCC(Cl)(Cl)Cl)OCC(Cl)(Cl)Cl` (stereo unspecified), the TGI is 28.8 µM.

On to `CSC(=S)N(C)C`, for which the total growth inhibition concentration (TGI) was more than 100 µM.

Compound `CCN(CC)CCn1c(=O)c2cccnc2n2c3c(=O)n(C)c(=O)n(C)c3nc12` showed a TGI of more than 100 µM.

`CCOC(=O)C1=C(C)C2C=C(c3cccs3)CC(c3ccc(Cl)cc3)=C2OC1=O` (stereo unspecified) registered a TGI of more than 100 µM.

`CN(C)c1ccc(S(=O)Nc2ccccc2)cc1` (stereo unspecified) yielded a TGI of more than 100 µM.

In the case of `CCOC(=O)c1nc2c(nc1C(=O)OCC)C(=O)c1ccccc1C2=O`, the TGI was found to be 3.73 µM.

Compound `CCCCC(C(=O)NCCNC(=O)CCC(=O)N(C)O)C(=O)NCCNC(=O)CCC(=O)N(C)O` displayed a TGI of more than 100 µM.

Compound `C=CCSc1nnc2cc(CN3CCCC3)c(-c3ccc(Cl)cc3)nn12` yielded a TGI of 36.1 µM.

`Cc1cn(C2CC(O)C(CO)O2)c(=O)[nH]c1=O` (stereo unspecified) displayed a TGI of more than 5000 µM.

Regarding `COc1cccc2c1OC1(C=C2)Oc2ccccc2C(=O)N1C` (stereo unspecified), the TGI is 98.6 µM.

In turn, `O=[N+]([O-])c1ccc(Oc2c(Cl)cc(S(=O)(=O)/N=C(\NO)Nc3ccc(Cl)cc3)cc2Cl)cc1` gave a TGI of 24.8 µM.

Compound `O=C(CC(C(=O)c1ccsc1)c1ccc2c(c1)OCO2)c1ccccc1` (stereo unspecified) showed a TGI of more than 100 µM.

In turn, `COc1ccc(NC(=O)CC(=O)N2N=C(N3c4ccccc4Sc4ccccc43)CC2c2ccccc2)cc1` (stereo unspecified) had a TGI of more than 100 µM.

As for `CC1(C)C2CCC1(C)[C@H](n1c(=O)n([C@@H]3CC4CCC3(C)C4(C)C)c(=O)n([C@@H]3CC4CCC3(C)C4(C)C)c1=O)C2`, the TGI was more than 100 µM.

Another test concerns SR leukemia. The experiment in a line: DTP human tumour cell line panel, 48 h.
With `CC1(C)CCCC2OC2CCC(C)(C)C1=O` (stereo unspecified), the TGI is more than 100 µM.

In turn, `O=C1NCC2(CCN(CCCC3(c4ccc(F)cc4)OCCO3)CC2)N1c1ccccc1` gave a TGI of more than 100 µM.

`O=C(Nc1nccs1)c1c(O)nc2sccn2c1=O` showed a concentration for total growth inhibition (TGI) of more than 10 µM.

The compound `CC1=NN(c2cccc(Cl)c2)C2(SCC(=O)N2c2nc3ccccc3s2)/C1=C\c1ccccc1O` (stereo unspecified) came in with a TGI of 37.5 µM.

Take `Cc1c(S(=O)(=O)c2ccccc2)c(N)n(CCN(C)C)c1C`: the TGI is more than 100 µM.

`N=C(N)SCc1ccc2c(c1)Sc1ccccc1O2` had a TGI of more than 31.6 µM.

For the compound `CCC1(CC)C(=O)NN(C(=O)c2ccccc2)C1=O`, the TGI is more than 100 µM.

`CS(=O)c1ncc2c(n1)-c1ccccc1OC2` (stereo unspecified) came in with a TGI of more than 100 µM.

Take `CN(C)c1ccc(C(=N/N=C2\C(=O)Nc3ccccc32)c2ccc(N(C)C)cc2)cc1`: the TGI is 26.8 µM.

`CCCC(=O)OC1CC(n2cc(F)c(=O)[nH]c2=O)OC1COP(=O)(OCC(Cl)(Cl)Cl)OCC(Cl)(Cl)Cl` (stereo unspecified): the TGI was 99.4 µM.

The compound `CSC(=S)N(C)C` displayed a TGI of more than 100 µM.

In the case of `CCN(CC)CCn1c(=O)c2cccnc2n2c3c(=O)n(C)c(=O)n(C)c3nc12`, the TGI is more than 100 µM.

With `CCOC(=O)C1=C(C)C2C=C(c3cccs3)CC(c3ccc(Cl)cc3)=C2OC1=O` (stereo unspecified), the TGI worked out at 50 µM.

For `CN(C)c1ccc(S(=O)Nc2ccccc2)cc1` (stereo unspecified), the TGI was more than 100 µM.

On to `COc1ccc2c(c1)OCC1Cc3ccccc3OC21` (stereo unspecified), for which the TGI is more than 100 µM.

These data come from PubChem BioAssay (NCI).
